Data on one compound can be found in publication PMC12386980, “Functional Analysis of NPC2 in Alarm Pheromone Recognition by the Red Imported Fire Ant, Solenopsis invicta (Formicidae: Solenopsis)” (Insects, 2025).

The IC50 is the concentration at which inhibition is half-maximal. Broadly, the Ki is the equilibrium dissociation constant of an inhibitor or competing ligand from its target. Read a high Ki as weaker binding.

SMILES strings stand for the structures.

Assay [1] concerns the target T1, SinvNPC2a (Solenopsis invicta, UniProt Z9QIP2HJ34).
T1 construct: recombinant from pET28a in E. coli BL21(DE3) pLysS, soluble, Ni-IDA purified
Description: fluorescence competitive binding assay, 1-NPN displacement.

Assay [2] addresses T1, SinvNPC2a. Described as above. This is another data set of the same source.

T1 sequence (Z9QIP2HJ34 21-153 limits assumed): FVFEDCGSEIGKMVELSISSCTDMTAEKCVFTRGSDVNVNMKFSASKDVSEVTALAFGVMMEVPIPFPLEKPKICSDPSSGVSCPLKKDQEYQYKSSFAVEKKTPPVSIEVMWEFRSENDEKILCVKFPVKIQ

With `CCc1nc(C)cnc1C` [EDMP, 2-ethyl-3,6-dimethylpyrazine], in assay [1], the concentration for half-maximal inhibition (IC50) stood at 9.82 µM. The compound also showed a Ki in assay [2] of 5.09 ± 1.51 µM.
